Molecules are shown by their SMILES.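 Assay format: 96-well plates, 48-hour exposure. TGI: concentration producing complete growth inhibition.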 Where a SMILES comes first, the peptide text is derived from it. The star is where a group is joined. Boc = CC(C)(C)OC(=O)*

Results on eleven compounds are retold here after PubChem BioAssay (NCI).

Among the test systems are SK-MEL-2 melanoma; M14 melanoma; HCC-2998 colon; OVCAR-5 ovarian; SF-268 CNS; MDA-MB-435; OVCAR-3 ovarian; K-562 leukemia; SW-620 colon; NCI-H23 lung; NCI/ADR-RES ovarian; LOX IMVI melanoma; HOP-92 NSCLC; NCI-H226 lung; HL-60(TB) leukemia; CCRF-CEM leukemia.
Test in all cases: DTP human tumour cell line panel, 48 h

As usually defined, the TGI is the concentration at which net growth stops. A lower TGI goes with more potent growth arrest. With `C[n+]1c2ccccc2c(C(=O)NC(CCCN=C(N)N)C(=O)O)c2ccccc21` (stereo not drawn), the total growth inhibition concentration (TGI) with SK-MEL-2 melanoma, with M14 melanoma, with HCC-2998 colon, in the experiment with OVCAR-5 ovarian, in the experiment with SF-268 CNS and in the experiment on MDA-MB-435 was above 100 µM each time. Besides, the TGI in the experiment with OVCAR-3 ovarian, in the experiment on K-562 leukemia, in the experiment on SW-620 colon, with NCI-H23 lung, with NCI/ADR-RES ovarian and in the experiment with LOX IMVI melanoma was above 100 µM each time.
Regarding `OC1CSCCCSCCSCCCSC1`, the total growth inhibition concentration (TGI) in the experiment with SK-MEL-2 melanoma, with HOP-92 NSCLC, in the experiment on NCI-H226 lung, in the experiment on M14 melanoma, in the experiment with HCC-2998 colon and with OVCAR-5 ovarian was above 100 µM throughout. The concentration for total growth inhibition (TGI) with SF-268 CNS, in the experiment on MDA-MB-435, in the experiment with OVCAR-3 ovarian, in the experiment with K-562 leukemia, in the experiment on SW-620 colon and in the experiment on NCI-H23 lung was above 100 µM throughout. Further, in the experiment on LOX IMVI melanoma, the TGI is above 100 µM.
For the compound `COc1ccc([C@@H]2CC(=O)NCCCNCCCCNCCCN2)cc1`, the TGI in the experiment with SK-MEL-2 melanoma, with HOP-92 NSCLC, in the experiment on HL-60(TB) leukemia, with NCI-H226 lung, with M14 melanoma and with HCC-2998 colon was above 100 µM in each case. For the same compound, the TGI in the experiment with OVCAR-5 ovarian, in the experiment with SF-268 CNS, in the experiment with K-562 leukemia, in the experiment on SW-620 colon, in the experiment on NCI-H23 lung and in the experiment on CCRF-CEM leukemia was above 100 µM in each case.
Consider `CCc1cccc(CC)c1Nc1nc2c(s1)C(=O)c1ccccc1C2=O`, for which the TGI in the experiment on SK-MEL-2 melanoma was 39.8 µM; in the experiment on HOP-92 NSCLC it was 44.7 µM; in the experiment on HL-60(TB) leukemia, above 100 µM; in the experiment on M14 melanoma, 32.8 µM; in the experiment with HCC-2998 colon it was 35.6 µM; with OVCAR-5 ovarian, 39.7 µM. For the same compound, the TGI was 41.7 µM with SF-268 CNS; 31.9 µM with MDA-MB-435; 34 µM in the experiment on OVCAR-3 ovarian; above 100 µM in the experiment on K-562 leukemia; 74.6 µM in the experiment on SW-620 colon; 32.8 µM in the experiment on NCI-H23 lung. The results for the TGI in the experiment on CCRF-CEM leukemia and with LOX IMVI melanoma were above 100 µM and 36 µM, respectively.
As to `Nc1ccc(C(=O)NN2C(=O)C(Cl)C2c2cc(Br)cc(Br)c2O)cc1` (stereo not drawn), the TGI in the experiment on SK-MEL-2 melanoma is above 100 µM; in the experiment on HOP-92 NSCLC, above 100 µM; in the experiment on HL-60(TB) leukemia it was above 100 µM; with NCI-H226 lung, 45.8 µM; in the experiment with M14 melanoma, 28.2 µM; in the experiment with HCC-2998 colon, above 100 µM. For the same compound, the TGI was above 100 µM with OVCAR-5 ovarian; 41.6 µM in the experiment with SF-268 CNS; above 100 µM in the experiment on SW-620 colon; 58 µM in the experiment on NCI-H23 lung; above 100 µM in the experiment on CCRF-CEM leukemia; 33.8 µM in the experiment on LOX IMVI melanoma.
Take `CC(=O)/C=C(/C=N/O)c1ccccc1`: the TGI with SK-MEL-2 melanoma, in the experiment with NCI-H226 lung, with M14 melanoma, in the experiment with HCC-2998 colon, in the experiment on OVCAR-5 ovarian and with SF-268 CNS was above 100 µM throughout. Also, the concentration for total growth inhibition (TGI) in the experiment on MDA-MB-435, in the experiment with OVCAR-3 ovarian, in the experiment with K-562 leukemia, in the experiment on SW-620 colon, in the experiment with NCI-H23 lung and with NCI/ADR-RES ovarian was above 100 µM in each case. Besides, the TGI with CCRF-CEM leukemia and with LOX IMVI melanoma was above 100 µM each time.
For the compound `O=C(CSc1nnc(Cc2ccccc2)o1)Nc1ccccc1Cl`, the concentration for total growth inhibition (TGI) in the experiment on SK-MEL-2 melanoma, in the experiment with HL-60(TB) leukemia, in the experiment on NCI-H226 lung, in the experiment on M14 melanoma, with HCC-2998 colon and in the experiment on OVCAR-5 ovarian was above 100 µM in each case. In addition, the concentration for total growth inhibition (TGI) in the experiment with SF-268 CNS, with OVCAR-3 ovarian, with K-562 leukemia, with SW-620 colon, in the experiment on NCI-H23 lung and with CCRF-CEM leukemia was above 100 µM in each case. Besides, the TGI in the experiment on LOX IMVI melanoma is above 100 µM.
`Cc1nc2nn(Cc3ccccc3)cc2c(=O)o1`: the TGI in the experiment on SK-MEL-2 melanoma, with HL-60(TB) leukemia, in the experiment with NCI-H226 lung, with HCC-2998 colon, in the experiment with OVCAR-5 ovarian and in the experiment with SF-268 CNS was above 100 µM throughout. Moreover, the TGI in the experiment with OVCAR-3 ovarian, with K-562 leukemia, with SW-620 colon, in the experiment on CCRF-CEM leukemia and with LOX IMVI melanoma was above 100 µM each time.
As to `COC(=O)C(Cc1c[nH]c2ccccc12)NC(=O)C(Cc1c[nH]c2ccccc12)NC(=O)C(Cc1c[nH]c2ccccc12)NC(=O)OC(C)(C)C` (stereo not drawn) (Boc-Trp-Trp-Trp-OMe; configuration not given here), the TGI in the experiment with SK-MEL-2 melanoma is 35.8 µM; in the experiment on HOP-92 NSCLC, 33 µM; in the experiment with HL-60(TB) leukemia, 47.4 µM; with NCI-H226 lung it was 37.1 µM; in the experiment with M14 melanoma, above 100 µM; in the experiment with HCC-2998 colon it was 32.9 µM. Besides, the TGI is 32 µM in the experiment with OVCAR-5 ovarian, above 100 µM with K-562 leukemia, 40.7 µM in the experiment with SW-620 colon and 31.8 µM in the experiment on NCI-H23 lung.
Turning to `C/C(=N/NC(=S)N(C)CCc1ccccn1)c1cnccn1`, the concentration for total growth inhibition (TGI) was 26.9 µM in the experiment on SK-MEL-2 melanoma; 21.2 µM in the experiment with HOP-92 NSCLC; above 100 µM in the experiment with HL-60(TB) leukemia; 0.0122 µM with NCI-H226 lung; 7.37 µM in the experiment on M14 melanoma; 33.8 µM in the experiment on HCC-2998 colon. For the same compound, the TGI in the experiment on OVCAR-5 ovarian was 22 µM; in the experiment with SF-268 CNS it was 14.9 µM; in the experiment with MDA-MB-435, 35.7 µM; in the experiment on OVCAR-3 ovarian, 19 µM; in the experiment on K-562 leukemia, above 100 µM; in the experiment on SW-620 colon it was 32.2 µM. Further, the results for the TGI in the experiment with NCI-H23 lung and with CCRF-CEM leukemia were 13 µM and above 68.2 µM, respectively.
For `O=[N+]([O-])c1cc2c(cc1O)[nH]c1cccc([N+](=O)[O-])c12`, the TGI in the experiment with SK-MEL-2 melanoma, with HL-60(TB) leukemia, in the experiment on NCI-H226 lung, in the experiment with M14 melanoma, with HCC-2998 colon and in the experiment on OVCAR-5 ovarian was above 100 µM throughout. In addition, the TGI with SF-268 CNS, in the experiment on OVCAR-3 ovarian, with K-562 leukemia, with SW-620 colon, in the experiment with NCI-H23 lung and in the experiment with CCRF-CEM leukemia was above 100 µM each time. Also, the TGI with LOX IMVI melanoma is above 100 µM.
